# Results taken from patent US20050148586A1 (priority 2004, published 2005).
# Molecular target: T1, glycogen phosphorylase (from rabbit muscle, Sigma P1261) (Oryctolagus cuniculus, UniProt P00489)
# T1 construct: glycogen phosphorylase (from rabbit muscle, Sigma P1261); purchased Sigma P1261; host or cells: rabbit muscle (tissue-derived)
# T1 sequence (P00489 2-843 limits assumed): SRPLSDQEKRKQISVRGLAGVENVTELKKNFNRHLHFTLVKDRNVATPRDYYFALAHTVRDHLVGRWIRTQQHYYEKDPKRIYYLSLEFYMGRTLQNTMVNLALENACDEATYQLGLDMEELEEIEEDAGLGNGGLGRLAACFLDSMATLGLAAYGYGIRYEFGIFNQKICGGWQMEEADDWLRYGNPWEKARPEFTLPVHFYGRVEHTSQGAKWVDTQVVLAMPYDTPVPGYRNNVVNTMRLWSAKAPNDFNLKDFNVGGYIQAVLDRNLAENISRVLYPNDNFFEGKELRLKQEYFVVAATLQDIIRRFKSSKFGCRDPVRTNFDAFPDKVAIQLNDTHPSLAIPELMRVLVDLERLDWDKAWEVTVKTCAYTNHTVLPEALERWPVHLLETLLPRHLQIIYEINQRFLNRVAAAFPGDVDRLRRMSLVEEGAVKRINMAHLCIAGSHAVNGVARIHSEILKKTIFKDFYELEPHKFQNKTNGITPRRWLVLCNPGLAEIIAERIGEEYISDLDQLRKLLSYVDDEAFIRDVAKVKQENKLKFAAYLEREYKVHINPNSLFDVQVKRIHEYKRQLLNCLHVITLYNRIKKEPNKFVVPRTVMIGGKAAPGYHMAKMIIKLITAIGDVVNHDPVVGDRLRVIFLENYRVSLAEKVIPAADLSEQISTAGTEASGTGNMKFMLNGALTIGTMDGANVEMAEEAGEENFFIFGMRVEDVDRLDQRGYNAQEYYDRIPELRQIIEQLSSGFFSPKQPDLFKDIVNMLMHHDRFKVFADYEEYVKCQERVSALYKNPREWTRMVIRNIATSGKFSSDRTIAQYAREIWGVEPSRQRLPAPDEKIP
# Assay: Enzyme Inhibition Assay (malachite green phosphate readout)
# Format: biochemical
# Conditions: for IC50: +/−.05; for inhibition at 20 µM: @ 20 μM test compound, percent inhibition (±10%) of enzymatic activity
# Method: All samples contain 2% DMSO, and the background lacks enzyme but contains all substrates. The reaction was stopped by the addition of […] of a 1N HCl solution containing 10 mg/ml ammonium molybdate and 0.38 mg/ml malachite green. After a 15-minute incubation period to allow the colored reaction (a quantitative measurement of inorganic phosphate) to develop, the colored wells were read at 650 nm. Data was reported as percent inhibition (±10%) of enzymatic activity at a specified concentration.
IC50,inhibition at 20 µM,SMILES
690 nM,96%,"Cn1c(=O)c(Nc2ccc(C(=O)NCc3ccccc3)cc2)nc2ccccc21 [Compound 78, N-Benzyl-4-(4-Methyl-3-oxo-3,4-dihydro-quinoxalin-2ylamino)-benzamide]"
460 nM,100%,"CCn1c(=O)c(Nc2ccc(C(=O)Nc3cc[nH]n3)cc2)nc2ccccc21 [Compound 29, 4-(4-Ethyl-3-oxo-3,4-dihydro-quinoxalin-2ylamino)-N-(1H-pyrazol-3-yl)-benzamide]"
2500 nM,92%,"Cn1c(=O)c(Nc2ccc(-c3ccc[nH]3)cc2)nc2ccccc21 [Compound 22, 1-Methyl-3-[4-(1H-pyrrol-2-yl)-phenylamino]-1H-quinoxalin-2-one]"
5700 nM,77%,"O=C(O)Cn1c(=O)c(Nc2ccc(C(=O)NCc3cccs3)cc2)nc2ccccc21 [Compound 75, (2-Oxo-3-{4-[(thiophen-2ylmethyl)-carbamoyl]-phenylamino}-2H-quinoxalin-1-yl)-acetic acid]"
320 nM,96%,"Cn1c(=O)c(Nc2ccc(C(=O)Nc3ccon3)cc2)nc2cccnc21 [Compound 36, N-Isoxazol-3-yl-4-(4-Methyl-3-oxo-3,4-dihydro-pyrido[2,3-b]pyrazin-2-ylamino)-benzamide]"
5000 nM,77%,"Cn1cccc1C(=O)Nc1ccc(Nc2nc3ccccc3n(C)c2=O)cc1 [Compound 19, 1-Methyl-1H-pyrrole-2-carboxylic acid[4-(4-Methyl-3-oxo-3,4-dihydro-quinoxalin-2ylamino)-phenyl]-amide]"
260 nM,97%,"O=C(Nc1ccon1)c1ccc(Nc2nc3ccccc3n(CCN3CCOCC3)c2=O)cc1 [Compound 55, N-Isoxazol-3-yl-4-[4-(2-Morpholin-4-yl-ethyl)-3-oxo-3,4-dihydro-quinoxalin-2ylamino]-bezamide]"
120 nM,100%,"CCn1c(=O)c(Nc2ccc(C(=O)Nc3ccon3)cc2)nc2ccccc21 [Compound 28, N-Isoxazol-3-yl-4-(4-Ethyl-3-oxo-3,4-dihydro-quinoxalin-2ylamino)-benzamide]"
710 nM,93%,"Cn1c(=O)c(Nc2ccc(C(=O)Nc3ccsc3)cc2)nc2ccccc21 [Compound 9, 4-(4-Methyl-3-oxo-3,4-dihydro-quinoxalin-2ylamino)-N-thiophen-3-yl-benzamide]"
800 nM,97%,"Cn1c(=O)c(Nc2ccc(NC(=O)c3cccnc3)cc2)nc2ccccc21 [Compound 16, N-[4-(4-Methyl-3-oxo-3,4-dihydro-quinoxalin-2ylamino)-phenyl]-nicotinamide]"
700 nM,99%,CN(C)CCn1c(=O)c(Nc2ccc(C(=O)NCc3cccs3)cc2)nc2ccccc21 [Compound 70]
2500 nM,80%,"Cn1c(=O)c(Nc2ccc(NC(=O)c3ccco3)cc2)nc2ccccc21 [Compound 18, Furan-2-carboxylic acid[4-(4-Methyl-3-oxo-3,4-dihydro-quinoxalin-2ylamino)-phenyl]-amide]"
–,95%,O=C(NCc1cccs1)c1ccc(Nc2nc3ccccc3n(CCN3CCCCC3)c2=O)cc1 [Compound 62]
300 nM,99%,O=C(NCc1cccs1)c1ccc(Nc2nc3ccccc3n(CCO)c2=O)cc1 [Compound 51]
1800 nM,89%,COC(=O)c1ccc(Nc2nc3ccccc3n(CCN3CCOCC3)c2=O)cc1 [Compound 57]
1300 nM,68%,"Cn1c(=O)c(Nc2ccc(C(=O)Nc3cnccn3)cc2)nc2ccccc21 [Compound 12, 4-(4-Methyl-3-oxo-3,4-dihydro-quinoxalin-2ylamino)-N-pyrazin-2-yl-benzamide]"
2500 nM,82%,"Cn1c(=O)c(Nc2ccc(-n3ccnc3)cc2)nc2ccccc21 [Compound 23, 3-(4-imidazol-1-yl-phenylamino)-1-methyl-1H-quinoxalin-2-one]"
1500 nM,70%,"Cn1c(=O)c(Nc2ccc(NC(=O)c3cccs3)cc2)nc2ccccc21 [Compound 17, Thiophene-2-carboxylic acid[4-(4-Methyl-3-oxo-3,4-dihydro-quinoxalin-2ylamino)-phenyl]-amide]"
830 nM,90%,"CCn1c(=O)c(Nc2ccc(C(=O)Nc3nccs3)cc2)nc2ccccc21 [Compound 30, 4-(4-Ethyl-3-oxo-3,4-dihydro-quinoxalin-2ylamino)-N-thiazol-2-yl-benzamide]"
890 nM,95%,Cn1ccc(NC(=O)c2ccc(Nc3nc4ccccc4n(C)c3=O)cc2)n1 [Compound 8]
120 nM,92%,"Cn1c(=O)c(Nc2ccc(C(=O)Nc3ccno3)cc2)nc2ccccc21 [Compound 7, N-Isoxazol-5-yl-4-(4-Methyl-3-oxo-3,4-dihydro-quinoxalin-2ylamino)-benzamide]"
